Literature values in US10245278B2 (priority 2013, dated 2019).
Read-outs that look alike come from different tables or passages of the source.

Key:
[1] = angina pectoris or congestive heart failure; oral, at least 6 grams per day for 6 weeks
[2] = intermittent claudication; oral 8 grams twice per day for 3 weeks
[3] = slightly hypertensive persons; oral 12 grams per day in three administrations for 4 weeks
[4] = menopausal women; oral 14 grams per day for 6 months
[5] = even at doses of 9 or 10 grams twice per day
[6] = heart transplant patients; 6 grams per day for several weeks
[7] = male subjects; 8 grams in a single administration one or two hours before relations

Compound	ability to withstand physical effort [1]	walking range [2]	arterial pressure [3]	muscular force [4]	side effects [5]	ability to withstand physical effort [6]	moderate sexual dysfunction [7]
N=C(N)NCCC[C@H](N)C(=O)O [arginine, L-arginine]	improves the ability to withstand physical effort	enabled their walking range to be increased	reduced the arterial pressure significantly	resulted in increasing muscular force	very few side effects	–	–
L-arginine aspartate	–	–	–	–	–	same result	significantly improved their disorder
